In patent publication US11299715B2, “Use of iNOS inhibitors to increase viral yield in culture” (priority 2013, dated 2022):

Test system: rHSV-1 d27-1 (d27-1) vector
Test: ATA-HSV protocol: rHSV-1 d27-1 vector yield in V27 cell supernatants
Type: cell-based, HSV-1
Excerpt: The wtHSV-1 KOS strain and the ICP27-deficient derivatives of the wtHSV-1 KOS strain: vectors d27-1 (Rice and Knipe, J. Virol. (1990) 64:1704-1715), rHSV-rep2/cap2 and rHSV-EGFP (Kang et al., Gene Ther. (2009) 16:229-239) and their producer ICP27-complementing V27 cell line were obtained from AGTC (Alachua, Fla.). The wtHSV-1 MacIntyre strain, purchased from Advanced Biotechnologies Inc. (ABI, Columbia Md.) and wtHSV-1 KOS strain were propagated in Vero, 293 or HeLa cell lines. Infectious vector particles were harvested 72 hr postinfection by recovering culture supernatant. The titers of HSV-1 stocks in DNase resistant particles/ml (DRP/ml) were determined by Taqman assay. Viral genomes within crude culture medium were quantified via treatment in the presence of DNase I (50 U/ml final; Promega) at 37° C. for 60 min, followed by proteinase K (Invitrogen) digestion (1 U/ml) at 50° C. for 60 min, and then denatured at 95° C. for 30 min. Linearized plasmid pZero 195 UL36 (obtained from AGTC, Inc., Alachua, Fla.) was used to generate standard curves.
ATA (Sigma-A1895 Aurintricarboxylic acid practical grade, ≥85% (titration), powder) stock solution was generated as 500 μM concentration in 100 mM sodium bicarbonate water solution. ATA stock solution was further diluted in DMEM+/−10% fetal bovine serum (FBS, Hyclone, Waltham, Mass.) into concentration ranges of […] ATA (8.5-21 μgATA/ml). The HSV-1 infection at multiplicity of infection of 0.15 (MOI=0.15) (typically 6×10^5 cells in a 6-well plate) was performed in 40% (⅖ vol) of the total final media volume for 1-2 hrs and the remaining media (60% or ⅗ of the total final volume) was added during the dilution step. The cells were then incubated 72 hours and supernatant harvested to perform forming units per milliliter (PFU/ml) and DRP/ml titer assays.
In order to test whether ATA could increase the rHSV-1 d27-1 (d27-1) vector yield in V27 cells, ATA was applied to the media during the infection (Step 1) or dilution steps (Step 2) (FIG. 2A). The d27-1 infection at MOI=0.15 was performed in ⅖ of the final media volume and the remaining ⅗ of the media was added during dilution step.
In order to determine which concentrations and conditions for ATA addition have impact on HSV yields, the following experiments were conducted. ATA at varying concentrations was added to V27 cultures infected with the HSV-1 d27-1 vectors in either six-well plates (FIG. 2B) or T150 flasks (FIG. 2C) in two steps as follows. In Step 1 of the protocol, V27 cells were infected with 0.15 MOI of the rHSV vector in ⅖ of the final volume of DMEM with 10% FBS and 0-60 μM ATA concentrations. Cells were cultured for 1-2 hours at 37° C. to complete Step 1. In Step 2, the concentration of ATA was reduced to a range between 12-24 μM by the addition of ⅗ of final media volume. Cells were cultured for 70-74 hours at 37° C. and the supernatant harvested. Viral titers were expressed as Dnase Resistant Particles (DRP/ml) or Plaque Forming Units (pfu/ml) per ml and were determined as described above.
In this experiment, V27 cells were seeded into six well plates the day prior to infection at 6×10^5 cells/well. HSV 2× infection solution was prepared as follows: HSV-1 d27.1 stock was added to DMEM (no FBS) at 2× titer that the cells would be infected at final MOI 0.15. Several 2×ATA solution combinations were prepared containing either 100 μM or 40 μM ATA in DMEM and without FBS or with 20% FBS.
HSV 2× infection solution was mixed equal volumes of either DMEM−/+20% FBS or desired 2×ATA solution−/+20% FBS, vortexed, and 1 ml of infectious inoculum per well was added in Step 1. If wells contained ATA in Step 1, the concentration was 50 μM and all wells were incubated for 1-2 hrs. In Step 2, additional 1.5 ml of DMEM combinations−/+40 μM ATA and −/+20% FBS were added. If wells contained ATA whether in Step 1 or Step 2, the final ATA concentration was 20 μM. […]

[1] = serum-free media, ATA at Step 2, 20 μM final
[2] = serum-free media, ATA starting at 3 μM at Step 1

## O=C(O)C1=CC(=C(c2ccc(O)c(C(=O)O)c2)c2ccc(O)c(C(=O)O)c2)C=CC1=O [ATA, 5-((3-carboxy-4-hydroxyphenyl)(3-carboxy-4-oxo-2,5-cyclohexadien-1-ylidene)methyl)-2-hydroxybenzoic acid]
50 μM ATA at infection step, 20 μM f.c., 72 h.p.i., control 1.4±0.2×10^7
  d27-1 titer in supernatant (PFU/ml): 1.2±0.3×10^8 PFU/ml
50 μM ATA at infection step, 20 μM f.c., 72 h.p.i., control 4.0±0.3×10^7
  d27-1 titer in supernatant (DRP/ml): 3.7±0.2×10^8 DRP/ml
50 μM ATA at infection step, 20 μM f.c., harvest 72 h.p.i.
  increase of d27-1 titers in supernatant: about 10 times
72 hpi, V27 monolayers, 100% CPE in the absence of ATA
  Cytopathic effect (CPE) at the time of harvest: 20-60%
ATA added in Step 1 or Step 2, six-well plates and T150 flasks, 10% FBS
  HSV titers versus cultures without ATA: significantly higher
ATA treatment
  HSV-1 plaque formation or cell lysis in V27 cell monolayers: delayed
[1]
  DRP titer, ATA in serum-free media at dilution step (Step 2): reduced below control level
  PFU/ml titer, ATA in serum-free media at dilution step (Step 2): below detection
[2]
  DRP/ml titer, ATA in serum-free media at infection Step 1: below the detection limit
  PFU/ml titer, ATA in serum-free media at infection Step 1: below the detection limit
Summary statement
  d27-1 titers with ATA (DRP/ml): ≥ 4×10^8 DRP/ml
  d27-1 titers with ATA (PFU/ml): at least 1×10^8 PFU/ml
  increase of d27-1 yields in V27 cells supernatants: 3-5 times
